The source of these data is patent US10544085B2, “Oils having antibacterial activity” (The United States of America, as Represented by the …, priority 2014, dated 2020).

One assay concerns Enterococcus faecium. The conditions noted are these: cited from earlier work.
For the next assay, the system named is Streptococcus epidermis. The conditions noted are these: cited from earlier work.
The test system of assay [1] is three strains of Staphylococcus aureus. The conditions noted are these: cited from earlier work.
The test system of a further assay is E. faecalis. The conditions noted are these: cited from earlier work.
For another assay, the system named is Streptococcus agalactiae. In words: MIC, broth microdilution. It counts as cell-based. The conditions noted are these: HPLC fractions, serial two-fold dilutions approximately 128 μg/ml to approximately 2 μg/ml. An excerpt:
The eight bacterial strains listed in Table 1 are used in the antibacterial activity assays. Streptococcus agalactiae and S. uberis (gifts from D. Donovan, ARS, USDA, Beltsville, Md.), Lactobacillus fermentum laboratory strain number 0315-1 (Bischoff, et al., Biotechnology and Bioengineering 103:117-122 (2009)), Enterococcus faecalis (ATCC Accession Number 29212), Bacillus subtilis MW10 (Bacillus Genetic Stock Center Accession Number 1A751), Staphylococcus aureus (ATCC Accession Number 29213), Escherichia coli (ATCC Accession Number 25922), and Pseudomonas aeruginosa (ATCC Accession Number 27853) are obtained from the indicated source. S. uberis, S. agalactiae, S. aureus, E. coli, and P. aeruginosa are cultured in tryptic soy broth (TSB) at 37° C. TSB contains the following: peptone from casein 17.0 g/L; peptone from soymeal 3.0 g/L; D(+)glucose 2.5 g/L; sodium chloride 5.0 g/L; and di-potassium hydrogen phosphate 2.5 g/L. E. faecalis are cultured in Bacto Brain Heart Infusion broth (BHI) (Becton Dickenson, Franklin Lakes, N.J.) at 37° C. L. fermentum are cultured in MRS broth at 37° C. MRS broth contains the following: peptone from casein 10.0 g/L; meat extract 8.0 g/L; yeast extract 4.0 g/L; D(+)-glucose 20.0 g/L; di-potassium hydrogen phosphate 2.0 g/L; Tween® 80 1.0 g/L; di-ammonium hydrogen citrate 2.0 g/L; sodium acetate 5.0 g/L; magnesium sulfate 0.2 g/L; and manganese sulfate 0.04 g/L. […]
Fractions 5-14 that were obtained from the HPLC fractionation (above) are assayed for antibacterial activity against S. agalactiae by the broth dilution method with serial two-fold dilutions of each component ranging from approximately 128 μg/ml to approximately 2 μg/ml. Fraction 12, containing mannitol-liamocin B1 had the lowest minimum inhibitory concentration (i.e. highest antibacterial activity) of the fractions.
A general note: Broth dilution looks for growth in wells or tubes with falling amounts of substance.

For the next assay, the system named is S. agalactiae. In words: Disc diffusion assay of HPLC fractions. Type of assay: cell-based, Streptococcus agalactiae. The conditions noted are these: 5 mg/ml, 10 μl per 6 mm disc, 37° C. overnight. On the procedure: Antibacterial activity for each fraction of the HPLC is measured qualitatively by disc diffusion assay. S. agalactiae at a density of 0.5 McFarland units are diluted 1:100 in PBS, and 20 μl are evenly spread on TSB agar media. Paper discs (6 mm diameter) are placed on surface. HPLC fractionated oils are dissolved to a concentration of 5 mg/ml in solvent (1:1 dimethylsulfoxide:2-butanone), and samples (10 μl) are applied to each disc. Plates are incubated at 37° C. overnight, and scored for a growth inhibition zone surrounding the disc, which indicates antibacterial activity. 5 mg/ml of purified oil is used as positive control, and acetonitrile solvent for HPLC is used as negative control.
(In general: In agar diffusion tests the substance spreads into inoculated agar from a disc or well.)

≈ marks a conversion by molar mass, not a printed value.

As usually defined, the MIC is the smallest concentration in the dilution series that meets the test's criterion for growth inhibition.

As for `CCCCC[C@@H](O)C[C@@H](O)CC(=O)O[C@H](CCCCC)C[C@@H](O)CC(=O)O[C@H](CCCCC)C[C@@H](O)CC(=O)O` [Exophilin A], the MIC was 12.5 µg/mL (≈ 21.7 µM) in the assay with Enterococcus faecium, > 100 µg/mL in the assay with Streptococcus epidermis, 50 µg/mL (≈ 86.7 µM) in assay [1] and 25 µg/mL (≈ 43.3 µM) in the assay on E. faecalis.

Turning to mannitol-liamocin A1 [Fraction 7], the “Minimum Inhibitory Concentration” value with Streptococcus agalactiae (listed as 7) is >128 µg/mL.

With mannitol-liamocin A1 [Fraction 8], in the assay on Streptococcus agalactiae (listed as 8), the “Minimum Inhibitory Concentration” value stood at 64 µg/mL. In addition, in the assay with S. agalactiae, the “growth inhibition zone surrounding the disc (antibacterial activity, qualitative)” value is “exhibit bactericidal activity”.

Take mannitol-liamocin A2 [Fraction 9]: the “Minimum Inhibitory Concentration” value in the assay on Streptococcus agalactiae (listed as 9) stood at 128 µg/mL. For the same compound, the “growth inhibition zone surrounding the disc (antibacterial activity, qualitative)” value in the assay with S. agalactiae was “exhibit bactericidal activity”.

On to mannitol-liamocin A2 [Fraction 10], for which the “Minimum Inhibitory Concentration” value in the assay with Streptococcus agalactiae (listed as 10) was determined as 64 µg/mL.

As for mannitol-liamocin B1 [Fraction 11], the “Minimum Inhibitory Concentration” value in the assay with Streptococcus agalactiae (listed as 11) worked out at 64 µg/mL. In addition, the “growth inhibition zone surrounding the disc (antibacterial activity, qualitative)” value in the assay with S. agalactiae was “exhibit bactericidal activity”.

As to mannitol-liamocin B1 [Fraction 12], in the assay on Streptococcus agalactiae (listed as 12), the “Minimum Inhibitory Concentration” value is 16 µg/mL.

On to mannitol-liamocin B2 [Fraction 13], for which, in the assay on Streptococcus agalactiae, the “Minimum Inhibitory Concentration” value was determined as 128 µg/mL. Also, in the assay on S. agalactiae, the “growth inhibition zone surrounding the disc (antibacterial activity, qualitative)” value was “exhibit bactericidal activity”.
